Here are results for one molecule from US20230341377A1, “DISCONNECTION AGENTS” (DC Europa Limited, priority 2020, published 2023).

For one series, the target named is PKCα (Homo sapiens, UniProt P17252). Further details: key: +—activation; ++—strong activation. The settings on record: cPKCs, gene PRKCA; cited from earlier work.
For another series, the system named is Hs578T cells. Description: SMS assay in Hs578T cells. It counts as cell-based, human. The note with it: versus vehicle and PMA (5 nM), FIG. 2A, 2B, 2D, 2E. An excerpt:
(§1) The SMS assay was developed to assess the transfer of cell dye (for example the acetoxymethyl [AM]-based Calcein AM), between cancer cells. The SMS assay can be applied to any cell lines forming tumour networks such as tumour microtubes (TM) or tunneling nanotubes (TNT), which enable the transfer of molecules across cells. The SMS assay can be used to assess networking capabilities of any cancer cell lines including HepG2 hepatocellular carcinoma cells, Hs578T cell line for human breast cancer, and U373 cell line for human glioblastoma.
(§2) The SMS assay is illustrated in FIG. 1. For the SMS assay, two sets of cells are stained with the cell dye of choice and a customary cell tracker dye (for example cell tracker blue) using established staining techniques (steps 1 and 2). Each set of cells are then co-incubated with the compound of interest to assess its capabilities to modulate the cells small molecule sharing characteristics (step 3). Then the two sets of cells are combined on a plate, for example at a ratio of 1:1, and cultured in the presence of the compound of interest (Step 4).
(§3) Finally, live cells are evaluated for viability and analyzed by flow cytometry for the uptake of cell dye in the […] cells (Step 5). The comparison of cell tracker uptake against positive and negative control enables the assessment of the compound's ability to modulate the tumour networks including those formed by TM and TNTs
(§4) The SMS assay has been applied to assess the modulation of network sharing capabilities of Protein Kinase C Modulators (PKCm) at various concentrations in the Hs578 cell line for human breast cancer, U373 cell line of human glioblastoma, and HepG2 hepatocellular carcinoma cells. PBS vehicle was used as negative control and the PKCm PHORBOL 12-MYRISTATE 13-ACETATE (PMA) at a concentration of 5 nM was used as the positive control.
(§5) FIG. 2A and FIG. 2B show the percentage of cell tracker cells that were accepting the cell dye transfer from separately stained donor cells according to the SMS assay of Example. The percentage of acceptor cells detected is shown in comparison to vehicle (upper horizontal line) and PMA at 5-10 nM concentration (lower horizontal line). Active PKCm in the SMS assay (FIG. 2A) show a decrease in acceptor cells relative to vehicle at certain concentration. […] The upper limit of the tested concentrations was determined as the maximal non-cytotoxic dose.

Series [1] concerns Hs578 cell line for human breast cancer, U373 cell line of human glioblastoma, and HepG2 hepatocellular carcinoma cells. Description: SMS assay (small molecule sharing), cell dye-sharing between cancer cells, cell lines pooled. The series is classed as cell-based. The settings on record: various doses that are not cytotoxic, in one or more cell lines.
From the text: as §1, §2, §3, §4, §5

For series [2], the system named is human patient-derived S24 glioblastoma cells. Description: Example 6: orthotopic S24 glioblastoma, TPPB followed by radiotherapy, intravital microscopy. It counts as in vivo, NMRI mice. The method, then: Orthotopic brain tumours were induced in NMRI mice using human patient-derived S24 glioblastoma cells exactly as described in Example 4. Once significant tumours were established in vivo (approximately 35 days after implantation), as shown by intravital microscopy exactly as described in Example 4, mice received 4 intraperitoneal injections on day -1, day 6 and day 13 and day 20, with Control mice receiving vehicle only and Treated mice receiving TPPB at 200 μg/kg. All mice then received radiotherapy on days 0, 1 and 2 exactly as described in Example 4, except that the radiation dose was 6 Gy as opposed to 7 Gy on each occasion (18 Gy total radiation dose as opposed to 21 Gy total radiation dose). The impact of treatment on the tumour was then monitored by intravital microscopy at intervals after the initiation of radiotherapy on day 0.

The subject of series [3] is patient-derived glioblastoma cells from the Glio10535 model. Description: Example 5: subcutaneous Glio10535 glioblastoma, TPPB with temozolomide, relative tumour volume. The series is classed as in vivo, NMRI nude mice. The procedure:
NMRI nude mice were subcutaneously implanted with patient-derived glioblastoma cells from the Glio10535 model (Orthmann et al.) on day 0.
Animals were stratified into the treatment groups on day 6 after tumour implantation to achieve similar average tumour volumes per group. Minimal tumour sizes were 44 mm^3 and maximal tumour sizes were 247 mm^3. Vehicle animals (n=9) were treated with a mix of DMSO, Tween20 and PBS. Each 5 animals were orally dosed with temozolomide chemotherapy at 25 mg/kg (TMZ 25) and at 50 mg/kg (TMZ 50) on consecutive days per week. Each week represents one chemotherapy cycle of 5 treatment days and 2 off-treatment days. TPPB was dosed intraperitoneally in combination with 25 mg/kg oral temozolomide either continuously at 0.2 mg/kg (n=10) or intermittently (n=10) at 0.1, 0.4, and 0.7 mg/kg starting with the last dose of every TMZ 25 cycle and ending the day before the next treatment cycle. Before the start of chemotherapy, TPPB was titrated to its target dose.

For a further series, the target named is PKCδ (Homo sapiens, UniProt Q05655). More on the design: key: +—activation; ++—strong activation. The settings on record: nPKCs, gene PRKCD; cited from earlier work.
PKCδ, sequence (Q05655 whole entry): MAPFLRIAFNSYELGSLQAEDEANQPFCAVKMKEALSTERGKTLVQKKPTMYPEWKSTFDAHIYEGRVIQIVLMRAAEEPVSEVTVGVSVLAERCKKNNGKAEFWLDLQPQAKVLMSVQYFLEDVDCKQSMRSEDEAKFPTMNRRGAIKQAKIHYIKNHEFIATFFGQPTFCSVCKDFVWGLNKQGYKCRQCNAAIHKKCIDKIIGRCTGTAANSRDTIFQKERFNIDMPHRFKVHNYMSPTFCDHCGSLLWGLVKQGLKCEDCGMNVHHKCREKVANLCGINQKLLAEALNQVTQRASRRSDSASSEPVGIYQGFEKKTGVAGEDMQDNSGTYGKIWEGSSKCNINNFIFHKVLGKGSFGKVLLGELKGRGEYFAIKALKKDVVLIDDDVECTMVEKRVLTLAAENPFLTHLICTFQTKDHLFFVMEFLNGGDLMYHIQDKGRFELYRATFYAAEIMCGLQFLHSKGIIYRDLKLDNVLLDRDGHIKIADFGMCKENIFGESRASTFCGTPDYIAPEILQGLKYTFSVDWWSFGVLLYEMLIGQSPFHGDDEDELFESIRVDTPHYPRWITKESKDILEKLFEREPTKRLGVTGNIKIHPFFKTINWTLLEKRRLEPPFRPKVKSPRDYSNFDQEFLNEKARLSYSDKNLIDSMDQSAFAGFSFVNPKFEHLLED
Where [4] appears, read: TPPB 200 μg/kg i.p. followed by radiotherapy, all mice.
[5] abbreviates: intermittent TPPB 0.7 2× per week i.p. + TMZ 25 mg/kg oral, by 38.

As for `CC(C)[C@H]1C(=O)N[C@H](CO)Cc2cc(NC(=O)/C=C/C=C/c3ccc(C(F)(F)F)cc3)ccc2N1C` [TPPB, (2E,4E)-N-[(2S,5S)-1,2,3,4,5,6-Hexahydro-5-(hydroxymethyl)-1-methyl-2-(1-methylethyl)-3-oxo-1,4-benzodiazocin-8-yl]-5-[4-(trifluoromethyl)phenyl]-2,4-pentadienamide], on PKCα, the “activation of PKCα” value was “++”. The “cell dye-sharing in the SMS assay (percentage of acceptor cells)” value with Hs578T cells is “inhibition of cell dye-sharing”. Moreover, the “inhibition of cell dye-sharing in the SMS assay” value in series [1] is “marked inhibition of cell dye-sharing”. Further, the tumour cell morphology entry in series [2] (TPPB 200 μg/kg i.p. + radiotherapy, from day 35 after initiation of radiotherapy) is reported as “marked change in morphology”. Besides, the “outcome of orthotopic solid brain tumour” value in series [2] (TPPB 200 μg/kg i.p. day -1, 6, 13, 20, radiotherapy 6 Gy days 0, 1, 2, by day 91) is listed as “complete cure”. Moreover, the “tumour cells in field of view” value in series [2] (TPPB 200 μg/kg i.p. day -1, 6, 13, 20, radiotherapy 6 Gy days 0, 1, 2, day 91) is reported as “no detectable tumour cells”. In addition, in series [2] (setting [4]), the “behavioural or clinical signs associated with the treatment” value is reported as “no behavioural or clinical signs” and the tolerability entry is on record as “well tolerated”. Further, in series [3] (continuous dosing with TPPB (0.2 mg/kg QD i.p. + TMZ 25)), the effect over control result is listed as “no effect over control”. Also, in series [3] (setting [5]), the “anti-tumour effect (relative tumour volume) compared with TMZ 25 monotherapy” value is given as “additive to the effect of temozolomide 25 mg/kg monotherapy” and the “anti-tumour effect (relative tumour volume) compared with continuous TPPB 0.2 QD + TMZ 25” value is given as “superior to continuous treatment with TPPB”. Further, the tumour growth result in series [3] (intermittent dosing with TPPB (+ TMZ 25)) is “tumour growth inhibition”. Besides, the “activation of PKCδ” value at PKCδ is “+”.
